Laboratory results as given in ChEMBL document CHEMBL3727361, “Nitrogen bicyclic compounds as inhibitors for Scyl1 and Grk5” (2014).
The source made the active and inactive calls. No cut-off for these calls is given here.

Columns and labels:
Beta-TC6 [1] = test: Increase in insulin release in mouse BetaTC6 cells assessed as relative insulin release activity at 10 uM incubated for 2 to 4 hrs by FRET based HTRF assay relative to sunitinib; format: functional
C2C12 [2] = test: Cytotoxic activity against mouse C2C12 cells assessed as inhibition of cell proliferation of at 2 to 10 uM incubated for 72 hrs by MTT assay; format: cell-based; conditions: c2c12, 72 h
[3] = target: T1, N-terminal kinase-like protein (Mus musculus) (UniProt Q9EQC5); test: Inhibition of Scyl1 in mouse BetaTC6 cells assessed as increase in insulin release at 2 to 10 uM incubated for 2 hrs in presence of high glucose media by ELISA; format: cell-based; conditions: Beta-TC6
T1 sequence (whole entry): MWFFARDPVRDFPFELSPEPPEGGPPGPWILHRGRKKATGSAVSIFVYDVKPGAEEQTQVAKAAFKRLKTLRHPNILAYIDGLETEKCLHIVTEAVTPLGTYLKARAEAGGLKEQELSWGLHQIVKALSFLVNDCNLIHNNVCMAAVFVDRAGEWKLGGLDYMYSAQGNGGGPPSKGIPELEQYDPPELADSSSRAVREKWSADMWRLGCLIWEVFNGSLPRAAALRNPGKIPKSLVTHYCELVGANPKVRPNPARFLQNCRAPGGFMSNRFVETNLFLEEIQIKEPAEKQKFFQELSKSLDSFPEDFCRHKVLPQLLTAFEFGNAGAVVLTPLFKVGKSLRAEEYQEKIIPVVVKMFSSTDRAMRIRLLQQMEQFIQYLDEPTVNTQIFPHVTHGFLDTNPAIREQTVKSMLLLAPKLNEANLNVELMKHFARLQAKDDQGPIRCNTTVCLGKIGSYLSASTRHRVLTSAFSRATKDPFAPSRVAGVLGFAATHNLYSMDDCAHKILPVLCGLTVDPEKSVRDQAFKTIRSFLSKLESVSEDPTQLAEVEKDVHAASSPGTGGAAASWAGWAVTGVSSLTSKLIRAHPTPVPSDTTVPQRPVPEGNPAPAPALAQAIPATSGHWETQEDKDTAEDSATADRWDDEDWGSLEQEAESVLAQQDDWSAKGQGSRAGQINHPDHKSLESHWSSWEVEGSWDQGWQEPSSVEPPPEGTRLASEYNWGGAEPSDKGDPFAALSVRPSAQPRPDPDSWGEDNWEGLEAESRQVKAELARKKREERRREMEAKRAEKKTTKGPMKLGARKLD

[4] = Effect on insulin release in mouse BetaTC6 cells assessed as ratio of insulin release incubated for 2 hrs in presence of low glucose media by ELISA relative to DMSO; format: cell-based; conditions: beta-tc6, 2 h
[5] = Cytotoxic activity against mouse BetaTC6 cells assessed as inhibition of cell proliferation at 10 uM incubated for 72 hrs by MTT assay; format: cell-based; conditions: beta-tc6, 72 h
C2C12 [6] = test: Cytotoxic activity against mouse C2C12 cells assessed as inhibition of cell proliferation of at 2 uM incubated for 72 hrs by MTT assay; format: cell-based; conditions: c2c12, 72 h
Beta-TC6 [7] = test: Effect on insulin release in mouse BetaTC6 cells incubated for 2 hrs by ELISA; format: functional, cell-based
[8] = target: T1, N-terminal kinase-like protein (Mus musculus); test: Inhibition of GRK5 in mouse C2C12 cells assessed as increase in 2-NBDG uptake at 5 uM after 1 hr relative to DMSO; format: cell-based
Beta-TC6 [9] = test: Increase in insulin release in mouse BetaTC6 cells at 5 uM incubated for 2 hrs by ELISA; format: functional
[10] = Cytotoxic activity against mouse BetaTC6 cells assessed as inhibition of cell proliferation at 2 to 10 uM incubated for 72 hrs by MTT assay; format: cell-based; conditions: beta-tc6, 72 h
[11] = target: T1, N-terminal kinase-like protein (Mus musculus); test: Inhibition of Scyl1 in mouse BetaTC6 cells assessed as reduction in increase in insulin release at 5 uM incubated for 2 hrs by ELISA; format: cell-based; conditions: Beta-TC6
[12] = target: RAC-alpha serine/threonine-protein kinase (Mus musculus) (UniProt P31750); test: Inhibition of Akt1 in mouse BetaTC6 cells assessed as increase in insulin release at 10 uM incubated for 2 hrs by ELISA; format: cell-based; design: scale not given: the % may be the effect or the level left; conditions: Beta-TC6
Sequence of RAC-alpha serine/threonine-protein kinase (Mus musculus) (P31750 whole entry): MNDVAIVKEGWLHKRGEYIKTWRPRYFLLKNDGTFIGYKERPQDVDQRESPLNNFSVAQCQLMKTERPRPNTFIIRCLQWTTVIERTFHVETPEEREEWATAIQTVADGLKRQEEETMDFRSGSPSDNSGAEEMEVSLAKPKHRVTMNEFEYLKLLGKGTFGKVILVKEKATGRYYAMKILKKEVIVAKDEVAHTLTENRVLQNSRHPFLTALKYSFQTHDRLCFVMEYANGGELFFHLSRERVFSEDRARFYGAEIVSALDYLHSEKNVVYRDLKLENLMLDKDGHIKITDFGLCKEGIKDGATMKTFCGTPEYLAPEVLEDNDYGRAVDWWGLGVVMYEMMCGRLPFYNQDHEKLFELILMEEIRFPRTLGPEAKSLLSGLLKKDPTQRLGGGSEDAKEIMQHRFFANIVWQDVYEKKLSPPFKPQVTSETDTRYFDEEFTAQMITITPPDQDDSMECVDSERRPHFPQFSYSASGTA

Structure (SMILES) | Activity (Beta-TC6 [1]) | further results
COc1cc(-c2cnc3ccc(-c4cc(OC)c(OC)c(OC)c4)nn23)ccc1O | 20% | Activity (C2C12 [2]): Toxic; inhibition [3]: Dose-dependent effect; Activity [4]: Non-toxic
COc1ccc(-c2ccc3ncc(-c4ccncc4)n3n2)cc1OC | 20% | Activity (C2C12 [2]): Toxic; inhibition [3]: Dose-dependent effect; Activity [4]: Non-toxic; Activity [5]: Toxic; Activity (C2C12 [6]): Non-toxic
COc1ccc(Cl)cc1C(=O)NCCc1ccc(S(=O)(=O)NC(=O)NC2CCCCC2)cc1 | – | Activity (Beta-TC6 [7]): inactive
Cn1cc(-c2ccc3ncc(-c4cccs4)n3n2)cn1 | 20% | Activity (C2C12 [2]): Toxic; Activity [4]: Non-toxic
CN(C)CCNC(=O)c1cccc(-c2cnc3ccc(-c4cccc(NS(C)(=O)=O)c4)nn23)c1 | 20% | Activity (C2C12 [2]): Toxic; inhibition [3]: Dose-dependent effect; Activity [4]: Non-toxic; Activity [5]: Toxic
CCCCNC(=O)NS(=O)(=O)c1ccc(C)cc1 | – | Activity (Beta-TC6 [7]): inactive
COc1cc(-c2ccc3ncc(-c4cccc(C(=O)NCCN(C)C)c4)n3n2)ccc1O | 10% | Activity (C2C12 [2]): Toxic
NC(=O)c1ccc(-c2cnc3ccc(Cc4ccc(F)cc4)nn23)cc1 | 20% | Activity (C2C12 [2]): Toxic
NC(=O)c1ccc(-c2cnc3ccc(Cc4ccccc4)nn23)cc1 | 20% | Activity (C2C12 [2]): Toxic
COc1ncc(-c2cc(NC(C)=O)c3ncc(-c4cccc(C(=O)N(C)C)c4)n3c2)c(OC)n1 | – | fold change (FC) [8]: 1.73; Activity (Beta-TC6 [9]): -16.75%
CCN(CC)CCNC(=O)c1c(C)[nH]c(/C=C2\C(=O)Nc3ccc(F)cc32)c1C [SUNITINIB] | – | Activity [5]: Toxic
COc1cc(-c2ccc3ncc(-c4cccnc4)n3n2)cc(OC)c1OC | 20% | Activity (C2C12 [2]): Toxic; Activity [10]: Non-toxic; inhibition [3]: Dose-dependent effect; Activity [4]: Non-toxic; Activity (C2C12 [6]): Non-toxic; inhibition [11]: 100%
CCCCCCCCCCCCCCCCCCOC[C@H](COP(=O)(O)O[C@H]1[C@H](O)[C@@H](O)[C@H](O)C[C@H]1OC)OC | – | Activity [12]: 0.75%
CC(=O)Nc1cccc(-c2ccc3ncc(-c4cccc(NC(C)=O)c4)n3n2)c1 | 20% | Activity (C2C12 [2]): Toxic; Activity [10]: Non-toxic; inhibition [3]: Dose-dependent effect; Activity [4]: Non-toxic; Activity (C2C12 [6]): Non-toxic
COc1cc(-c2cn3c(-c4ccc5ncccc5c4)cnc3cn2)ccc1O | 20% | –
COc1ccc(-c2ccc3nnc(-c4ccccc4)n3c2)c(C)c1 | >=100% | –
CN(C)CCNC(=O)c1cccc(-c2ccc3nnc(-c4ccc5nccnc5c4)n3c2)c1 | >=100% | –
CC(=O)Nc1ccc(-c2cnc3ccc(-c4ccc(N5CCOCC5)cc4)nn23)cc1 | >=100% | –
Oc1cccc(-c2cnc3cnc(-c4cc5ccccc5s4)cn23)c1 | 50% | –
c1coc(-c2cn3c(-c4ccsc4)cnc3cn2)c1 | 20% | –
Fc1cccc(-c2cnc3cnc(-c4cccs4)cn23)c1 | 20% | –

Structure (SMILES) | Activity (Beta-TC6 [1]) | further results
CN(C)c1cccc(-c2ccc3ncc(-c4cccs4)n3n2)c1 | 20% | –
c1ccc(Cn2cc(-c3cn4c(-c5ccc6c(c5)OCO6)cnc4cn3)cn2)cc1 | 50% | –
OCc1ccc(-c2cn3c(-c4cccc(Cl)c4)cnc3cn2)cc1 | 20% | –
Cc1ccccc1-c1cn2c(-c3ccc(CCC(=O)O)cc3)cnc2cn1 | 20% | –
c1ccc(Oc2ccccc2-c2cn3c(-c4ccncc4)cnc3cn2)cc1 | 20% | –
CC(C)[C@@H](CO)Nc1ccc2ncc(-c3ccc(N)cc3)n2n1 | 50% | –
CS(=O)(=O)Nc1ccc(-c2cnc3cccnn23)cc1 | 10% | –
CCOc1cccc(-c2cn3c(-c4ccc(CCC(=O)O)cc4)cnc3cn2)c1 | >=100% | –
COc1cccc(CC(=O)Nc2cnc3cnc(-c4ccccc4CN(C)C)cn23)c1 | 20% | –
N#Cc1cccc(-c2cnc3cccnn23)c1 | 20% | –
CNc1ccc2ncc(/C=C\CCCO)n2n1 | 10% | –
C(=C\c1cnc2cccnn12)/c1ccccc1 | 20% | –
CN(C)c1ccc(-c2cnc3cnc(-c4ccc(C(=O)N5CCOCC5)cc4)cn23)cc1 | 20% | –
CN(C)CCCNC(=O)c1ccc(-c2cn3c(-c4ccc5c(ccn5C)c4)cnc3cn2)cc1 | 20% | –
CCOc1cccc(-c2cn3c(-c4ccc5c(c4)OCO5)cnc3cn2)c1 | 50% | –
CC(=O)Nc1cccc(-c2ccc3nnc(-c4ccccc4)n3c2)c1 | 50% | –
c1cnn2c(-c3ccc4c(c3)CCO4)cnc2c1 | 10% | –
N#Cc1ccc(-c2cnc3cnc(-c4ccc(Cl)cc4)cn23)cc1 | 50% | –
Cc1ccc(CNc2ccc3ncc(-c4ccc(O)cc4)n3n2)c(C)c1 | 20% | –
CN(C)C(=O)c1ccc(-c2ccc3nnc(-c4cccc(C(F)(F)F)c4)n3c2)cc1 | 20% | –
CC(C(=O)Nc1cnc2cnc(-c3ccc4c(c3)OCO4)cn12)c1ccccc1 (stereo unspecified) | 20% | –

Structure (SMILES) | Activity (Beta-TC6 [1]) | further results
Fc1cccc(-c2cnc3cnc(-c4ccccc4)cn23)c1 | 20% | –
CC(C)(C)c1ccc(-c2cnc3cnc(-c4ccc(N)nc4)cn23)cc1 | 10% | –
CSc1ccccc1-c1cnc2cccnn12 | 50% | –
OCc1ccc(-c2cn3c(-c4cccc(F)c4)cnc3cn2)cc1 | 20% | –
CN(C)c1ccc(-c2cnc3cnc(-c4ccccc4Cl)cn23)cc1 | 20% | –
CSc1ccc(-c2cn3c(-c4cccnc4)cnc3cn2)cc1 | 20% | –
Oc1cccc(-c2nnc3ccc(-c4cccc5ncccc45)cn23)c1 | 20% | –
CC(=O)c1cccc(-c2cnc3ccc(-c4ccc(N)nc4)nn23)c1 | 20% | –
OCc1cccc(-c2cnc3cnc(-c4ccccc4)cn23)c1 | 20% | –
OCc1cccc(-c2cnc3ccc(-c4cccc(Oc5ccccc5)c4)nn23)c1 | 20% | –
O=C(NCCO)c1ccc(-c2cn3c(-c4cccs4)cnc3cn2)cc1 | 10% | –
Oc1cccc(-c2cnc3cnc(-c4ccc(Cl)cc4)cn23)c1 | 20% | –
O=C(NCCO)c1cccc(-c2cn3c(-c4cccc(OC(F)(F)F)c4)cnc3cn2)c1 | 20% | –
c1nc(-c2nnc3ccc(-c4ccc(N5CCOCC5)cc4)cn23)cs1 | 50% | –
COc1cccc(CC(=O)Nc2cnc3cnc(-c4ccc5[nH]ccc5c4)cn23)c1 | 10% | –
COc1cc(-c2nnc3ccc(-c4cccc(F)c4)cn23)ccc1O | 50% | –
CN1CCN(C(=O)c2cccc(-c3cnc4cnc(-c5ccc6c(c5)OCO6)cn34)c2)CC1 | 20% | –
CC(C)Oc1cccc(-c2cn3c(-c4ccc5c(c4)OCO5)cnc3cn2)c1 | 50% | –
Cn1ccc2cc(-c3cnc4cnc(-c5cccc(C(N)=O)c5)cn34)ccc21 | 20% | –
CC(=O)Nc1cccc(-c2cn3c(-c4ccc(C(=O)N(C)C)cc4)cnc3cn2)c1 | 20% | –
